Each structure is given as a SMILES string.

Assay [1] in a line: Inhibition of recombinant VIM-2.
Assay [2] is described as follows: Inhibition of recombinant GIM-1.

As usually defined, the IC50 is the midpoint of a concentration-inhibition curve. For the compound `CC(=O)OCC1=C(C(=O)O)N2C(=O)[C@@H](N(O)C=O)[C@H]2SC1`, the figures for the IC50 in assay [1] and in assay [2] were 10 µM and 0.3 µM, respectively.
For `CC(=O)OCC1=C(C(=O)O)N2C(=O)/C(=N/O)[C@H]2SC1` the same measures were 10 µM and 15 µM.
On to `CC(=O)OCC1=C(C(=O)O)N2C(=O)/C(=N/O)[C@H]2S(=O)(=O)C1`, for which the values for the half-maximal inhibitory concentration (IC50) in assay [1] and in assay [2] were 270 µM and 170 µM, respectively.
Take `CC1=C(C(=O)O)N2C(=O)/C(=N/O)[C@H]2S(=O)(=O)C1`: the IC50 in assay [1] was 25 µM; in assay [2] it was over 500 µM.
Regarding `CC(=O)OCC1=C(C(=O)O)N2C(=O)[C@@H](NO)[C@H]2SC1`, the IC50 was found to be 9 µM in assay [1] and 2 µM in assay [2].
Regarding `CC(=O)OCC1=C(C(=O)O)N2C(=O)[C@@H](N(O)C(=O)Cc3ccccc3)[C@H]2SC1`, the IC50 in assay [1] turned out to be 2 µM; in assay [2], 0.3 µM.
Turning to `CC(=O)OCC1=C(C(=O)O)N2C(=O)[C@@H](NC=O)[C@H]2SC1`, the IC50 in assay [1] is 35 µM; in assay [2] it was 47 µM.

The record behind these values is ChEMBL document CHEMBL1153321, “Approaches to the simultaneous inactivation of metallo- and serine-beta-lactamases” (Bioorg Med Chem Lett, 2009).
